In patent US8716473B2, “Substituted benzotriazines and quinoxalines as inhibitors of P7OS6 kinase” (Sentinel Oncology Limited, priority 2009, dated 2014):
pIC50: −log10 of the molar value. Counter-ions that a name gives are not always drawn.

Biological target: p70S6K (h) (Homo sapiens, UniProt P23443)
Experiment: Determination of p70S6 inhibitory activity (radiometric 33P-ATP filter assay)
Format: biochemical
Conditions: 40 min at room temperature, read-out: IC50 against P70S6 kinase
Description: The ability of compounds of the invention to inhibit P70S6 kinase was determined using the protocol below.
• 20 mM MOPS, 1 mM EDTA, 0.01% Brij-35, 5% Glycerol, 0.1% b-mercaptoethanol, 1 mg/mL BSA Method: • p70S6K (h)
In a final reaction volume of 25 μL, p70S6K (h) (5-10 mU) is incubated with 8 mM MOPS pH 7.0, 0.2 mM EDTA, 100 μM KKRNRTLTV, 10 mM Mg acetate and [γ-33P-ATP] (specific activity approx. 500 cpm/pmol, concentration as required). The reaction is initiated by the addition of the MgATP mix. After incubation for 40 minutes at room temperature, the reaction is stopped by the addition of 5 μL of a 3% phosphoric acid solution. 10 μL of the reaction mixture is then spotted onto a P30 filtermat and washed three times for 5 minutes in 75 mM phosphoric acid and once in methanol prior to drying and scintillation counting.

Chain of p70S6K (h) (P23443 whole entry): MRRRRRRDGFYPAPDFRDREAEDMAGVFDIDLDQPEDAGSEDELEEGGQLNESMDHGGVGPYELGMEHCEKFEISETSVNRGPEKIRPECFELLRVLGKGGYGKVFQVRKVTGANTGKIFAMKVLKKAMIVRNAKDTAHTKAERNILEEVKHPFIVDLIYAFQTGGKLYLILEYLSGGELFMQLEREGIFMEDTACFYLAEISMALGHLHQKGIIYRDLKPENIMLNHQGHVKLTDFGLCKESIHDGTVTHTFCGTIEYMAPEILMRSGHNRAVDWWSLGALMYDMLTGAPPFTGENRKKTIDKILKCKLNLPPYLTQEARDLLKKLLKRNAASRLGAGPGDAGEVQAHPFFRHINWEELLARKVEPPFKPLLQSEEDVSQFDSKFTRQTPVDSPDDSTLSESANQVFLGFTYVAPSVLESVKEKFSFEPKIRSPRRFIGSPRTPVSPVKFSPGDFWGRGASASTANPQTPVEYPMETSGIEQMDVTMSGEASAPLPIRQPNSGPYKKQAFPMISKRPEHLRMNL

SMILES | pIC50
c1ccc(CNc2cnc3cc(-c4cn[nH]c4)ccc3n2)nc1 [Example 16, [6-(1H-Pyrazol-4-yl)-quinoxalin-2-yl]-pyridin-2-ylmethyl-amine hydrochloride] | > 5.30
c1cc(CNc2cnc3cc(-c4cn[nH]c4)ccc3n2)ccn1 [Example 14, [6-(1H-Pyrazol-4-yl)-quinoxalin-2-yl]-pyridin-4-ylmethyl-amine hydrochloride] | > 5.30
C[C@H](Nc1cnc2cc(-c3cn[nH]c3)ccc2n1)c1ccccc1 [Example 24, ((S)-1-Phenyl-ethyl)-[6-(1H-pyrazol-4-yl)-quinoxalin-2-yl]-amine hydrochloride] | > 5.30
C[C@H](Nc1cnc2cc(-c3cn[nH]c3)ccc2n1)c1cccc(F)c1 [Example 59, [(S)-1-(3-Fluoro-phenyl)-ethyl]-[6-(1H-pyrazol-4-yl)-quinoxalin-2-yl]-amine hydrochloride] | > 5.30
C[C@@H](c1cccc(F)c1)N(C)c1cnc2cc(-c3cn[nH]c3)ccc2n1 [Example 60, [(S)-1-(3-Fluoro-phenyl)-ethyl]-methyl-[6-(1H-pyrazol-4-yl)-quinoxalin-2-yl]-amine] | > 6.00
FC(F)(F)c1ccc(CNc2cnc3cc(-c4cn[nH]c4)ccc3n2)cc1 [Example 40, [6-(1H-Pyrazol-4-yl)-quinoxalin-2-yl]-(4-trifluoromethyl-benzyl)-amine] | > 6.00
[O-][n+]1cc(NCc2ccccc2)nc2ccc(-c3cn[nH]c3)cc21 [Example 65C, benzyl-[4-oxy-6-(1H-pyrazol-4-yl)-quinoxalin-2-yl]-amine] | > 6.00
CN(Cc1ccccc1Cl)c1cnc2cc(-c3cn[nH]c3)ccc2n1 [Example 45, (2-Chloro-benzyl)-methyl-[6-(1H-pyrazol-4-yl)-quinoxalin-2-yl]-amine hydrochloride] | > 6.00
c1ccc2cc(CNc3cnc4cc(-c5cn[nH]c5)ccc4n3)ccc2c1 [Example 39, Naphthalen-2-ylmethyl-[6-(1H-pyrazol-4-yl)-quinoxalin-2-yl]-amine hydrochloride] | > 6.00
COc1ccccc1CNc1cnc2cc(-c3cn[nH]c3)ccc2n1 [Example 19, (2-Methoxy-benzyl)-[6-(1H-pyrazol-4-yl)-quinoxalin-2-yl]-amine] | > 6.00
FC(F)(F)Oc1cccc(CNc2cnc3cc(-c4cn[nH]c4)ccc3n2)c1 [Example 30, [6-(1H-Pyrazol-4-yl)-quinoxalin-2-yl]-(3-trifluoromethoxy-benzyl)-amine] | > 6.00
[O-][n+]1nc(NCc2cccc(Cl)c2)nc2ccc(-c3cn[nH]c3)cc21 [Example 63, (3-Chloro-benzyl)-[1-oxy-7-(1H-pyrazol-4-yl)-benzo[1,2,4]triazin-3-yl]-amine] | > 6.00
Fc1ccc(CNc2cnc3cc(-c4cn[nH]c4)ccc3n2)cc1C(F)(F)F [Example 20, (4-Fluoro-3-trifluoromethyl-benzyl)-[6-(1H-pyrazol-4-yl)-quinoxalin-2-yl]-amine] | > 6.00
c1cncc(CNc2cnc3cc(-c4cn[nH]c4)ccc3n2)c1 [Example 15, [6-(1H-Pyrazol-4-yl)-quinoxalin-2-yl]-pyridin-3-ylmethyl-amine hydrochloride] | > 6.00

Results, then the molecule that gave them:

pIC50 | SMILES
> 6.00 | CN(Cc1ccccc1)c1cnc2cc(-c3ccncn3)ccc2n1 [Example 23, Benzyl-methyl-(6-pyrimidin-4-yl-quinoxalin-2-yl)-amine]
> 6.00 | CN(Cc1ccccc1)c1cnc2cc(-c3ccncc3)ccc2n1 [Example 22, Benzyl-methyl-(6-pyridin-4-yl-quinoxalin-2-yl)-amine]
> 6.00 | [O-][n+]1nc(NCc2ccc(Cl)cc2)nc2ccc(-c3cn[nH]c3)cc21 [Example 62, (4-Chloro-benzyl)-[1-oxy-7-(1H-pyrazol-4-yl)-benzo[1,2,4]triazin-3-yl]-amine]
> 7.00 | Cc1ccc(CNc2cnc3cc(-c4cn[nH]c4)ccc3n2)cc1 [Example 44, (4-Methyl-benzyl)-[6-(1H-pyrazol-4-yl)-quinoxalin-2-yl]-amine]
> 6.00 | CN(Cc1ccc(F)c(C(F)(F)F)c1)c1cnc2cc(-c3cn[nH]c3)ccc2n1 [Example 29, (4-Fluoro-3-trifluoromethyl-benzyl)-methyl-[6-(1H-pyrazol-4-yl)-quinoxalin-2-yl]-amine]
> 7.00 | C[C@H](c1ccccc1)N(C)c1cnc2cc(-c3cn[nH]c3)ccc2n1 [Example 51, Methyl-((R)-1-phenyl-ethyl)-[6-(1H-pyrazol-4-yl)-quinoxalin-2-yl]-amine]
> 6.00 | Clc1ccccc1CNc1cnc2cc(-c3cn[nH]c3)ccc2n1 [Example 10, (2-Chloro-benzyl)-[6-(1H-pyrazol-4-yl)-quinoxalin-2-yl]-amine]
> 7.00 | CN1CCN(c2cccc(CN(C)c3cnc4cc(-c5cn[nH]c5)ccc4n3)c2)CC1 [Example 48, Methyl-[3-(4-methyl-piperazin-1-yl)-benzyl]-[6-(1H-pyrazol-4-yl)-quinoxalin-2-yl]-amine]
> 6.00 | C[C@@H](c1ccccc1)N(C)c1cnc2cc(-c3cn[nH]c3)ccc2n1 [Example 57, Methyl-((S)-1-phenyl-ethyl)-[6-(1H-pyrazol-4-yl)-quinoxalin-2-yl]-amine]
> 6.00 | [O-][n+]1nc(NCc2ccccc2)nc2ccc(-c3cn[nH]c3)cc21 [Example 61, Benzyl-[1-oxy-7-(1H-pyrazol-4-yl)-benzo[1,2,4]triazin-3-yl]-amine]
> 6.00 | c1ccc(CNc2nnc3cc(-c4cn[nH]c4)ccc3n2)cc1 [Example 64, Benzyl-[7-(1H-pyrazol-4-yl)-benzo[1,2,4]triazin-3-yl]-amine]
> 7.00 | COc1cccc([C@@H](C)N(C)c2cnc3cc(-c4cn[nH]c4)ccc3n2)c1 [Example 53, [(R)-1-(3-Methoxy-phenyl)-ethyl]-methyl-[6-(1H-pyrazol-4-yl)-quinoxalin-2-yl]-amine hydrochloride]
> 6.00 | COc1cccc(CNc2nnc3cc(-c4cn[nH]c4)ccc3n2)c1 [Example 37, (3-Methoxy-benzyl)-[7-(1H-pyrazol-4-yl)-benzo[1,2,4]triazin-3-yl]-amine]
> 7.00 | COc1cccc(CNc2nc3ccc(-c4cn[nH]c4)cc3[n+]([O-])n2)c1 [Example 36, (3-Methoxy-benzyl)-[1-oxy-7-(1H-pyrazol-4-yl)-benzo[1,2,4]triazin-3-yl]-amine]
> 7.00 | CN(Cc1ccccc1)c1nnc2cc(-c3cn[nH]c3)ccc2n1 [Example 35, Benzyl-methyl-[7-(1H-pyrazol-4-yl)-benzo[1,2,4]triazin-3-yl]-amine]
> 7.00 | CN(Cc1ccccc1)c1cnc2cc(-c3cncnc3)ccc2n1 [Example 43, Benzyl-methyl-(6-pyrimidin-5-yl-quinoxalin-2-yl)-amine]
> 7.00 | C[C@@H](Nc1cnc2cc(-c3cn[nH]c3)ccc2n1)c1cccc(Cl)c1 [Example 55, [(R)-1-(3-Chloro-phenyl)-ethyl]-[6-(1H-pyrazol-4-yl)-quinoxalin-2-yl]-amine hydrochloride]
> 7.00 | Oc1cccc(CNc2cnc3cc(-c4cn[nH]c4)ccc3n2)c1 [Example 54, 3-{[6-(1H-Pyrazol-4-yl)-quinoxalin-2-ylamino]-methyl}-phenol]
> 7.00 | CN(Cc1ccccc1)c1nc2ccc(-c3cn[nH]c3)cc2[n+]([O-])n1 [Example 34, Benzyl-methyl-[1-oxy-7-(1H-pyrazol-4-yl)-benzo[1,2,4]triazin-3-yl]-amine]

Test system: phosphorylation of S6 Ser235/236 in MCF-7 cells
Experiment: Inhibition of P70S6K activity in whole cells: phospho-S6 ELISA in MCF-7 cells
Format: cell-based
Conditions: Homo sapiens, MCF7, 2 h incubation, 1% FBS
Description: The following assay provides IC50 values for inhibition of P70S6K activity in a whole cell assay by determining effects on the phosphorylation of S6^Ser235/236 in MCF-7 cells by ELISA.
The following protocol was used: • 1) MCF-7 cells were seeded in 96-well plates at a density of 7×10^3 cells per well and allowed to adhere for 6 h in media containing 10% FBS. • 2) The full serum media was replaced and cells incubated overnight in media containing 1% FBS, prior to addition of test compounds. • 3) Test compounds were prepared from 10 mM or 5 mM (BEZ-235) DMSO stocks to give final concentration ranges as indicated on graphs. DMSO was constant at a final concentration of 1%. • 4) Test compounds were incubated with cells in duplicate for 2 h at 37° C./5% CO2 in a humidified atmosphere. • 5) The media was removed and cells were lysed by freeze-thawing in cell lysis buffer. • 6) Detection of phosphorylated S6Ser235/236 was then carried out using a PathScan ELISA kit (Cell Signaling Technology #7205). • 7) Lysates were diluted 1:1 with sample diluent before being applied to wells coated with an antibody against phosphorylated-S6 protein. • 8) The ELISA was then performed as stated in the manufacturers' instructions. • 9) The raw data were normalised to control values and analysed using a 4-parameter logistic equation in GraphPad Prism.

SMILES | pIC50
C[C@H](c1cccc(Cl)c1)N(C)c1cnc2cc(-c3cn[nH]c3)ccc2n1 [Example 56, [(R)-1-(3-Chloro-phenyl)-ethyl]-methyl-[6-(1H-pyrazol-4-yl)-quinoxalin-2-yl]-amine] | > 5.30
C[C@H](Nc1cnc2cc(-c3cn[nH]c3)ccc2n1)c1cccc(F)c1 [Example 59, [(S)-1-(3-Fluoro-phenyl)-ethyl]-[6-(1H-pyrazol-4-yl)-quinoxalin-2-yl]-amine hydrochloride] | > 4.70
C[C@@H](c1cccc(F)c1)N(C)c1cnc2cc(-c3cn[nH]c3)ccc2n1 [Example 60, [(S)-1-(3-Fluoro-phenyl)-ethyl]-methyl-[6-(1H-pyrazol-4-yl)-quinoxalin-2-yl]-amine] | > 4.70
Cc1cccc([C@@H](C)Nc2cnc3cc(-c4cn[nH]c4)ccc3n2)c1 [Example 58, [6-(1H-Pyrazol-4-yl)-quinoxalin-2-yl]-((R)-1-m-tolyl-ethyl)-amine hydrochloride] | > 6.00

Further lines, results first:

pIC50 | SMILES
> 5.30 | C[C@H](c1ccccc1)N(C)c1cnc2cc(-c3cn[nH]c3)ccc2n1 [Example 51, Methyl-((R)-1-phenyl-ethyl)-[6-(1H-pyrazol-4-yl)-quinoxalin-2-yl]-amine]
> 6.00 | COc1cccc([C@@H](C)N(C)c2cnc3cc(-c4cn[nH]c4)ccc3n2)c1 [Example 53, [(R)-1-(3-Methoxy-phenyl)-ethyl]-methyl-[6-(1H-pyrazol-4-yl)-quinoxalin-2-yl]-amine hydrochloride]
> 4.70 | CN(Cc1ccccc1)c1cnc2cc(-c3cncnc3)ccc2n1 [Example 43, Benzyl-methyl-(6-pyrimidin-5-yl-quinoxalin-2-yl)-amine]
> 6.00 | C[C@@H](Nc1cnc2cc(-c3cn[nH]c3)ccc2n1)c1cccc(Cl)c1 [Example 55, [(R)-1-(3-Chloro-phenyl)-ethyl]-[6-(1H-pyrazol-4-yl)-quinoxalin-2-yl]-amine hydrochloride]
> 5.30 | Oc1cccc(CNc2cnc3cc(-c4cn[nH]c4)ccc3n2)c1 [Example 54, 3-{[6-(1H-Pyrazol-4-yl)-quinoxalin-2-ylamino]-methyl}-phenol]
